pIC50: −log10 of the molar value.
Key:
[1] = system: SMMC-7721; test: Induction of apoptosis in human SMMC7721 cells assessed as live cells at IC50 after 24 hrs by annexin V/PI-staining based flow cytometry (reference value: 97.3 %); type: functional
[2] = system: SMMC-7721; test: Cytotoxicity against human SMMC7721 cells after 48 hrs by MTT assay; type: functional, cell-based; conditions: SMMC-7721, 48 h
[3] = system: SMMC-7721; test: Induction of apoptosis in human SMMC7721 cells assessed as early apoptotic cells at IC50 after 24 hrs by annexin V/PI-staining based flow cytometry (reference value: 0.6 %); type: functional
[4] = system: SMMC-7721; test: Induction of apoptosis in human SMMC7721 cells assessed as late apoptotic cells at IC50 after 24 hrs by annexin V/PI-staining based flow cytometry (reference value: 0.5 %); type: functional
[5] = system: SMMC-7721; test: Induction of apoptosis in human SMMC7721 cells assessed as necrotic cells at IC50 after 24 hrs by annexin V/PI-staining based flow cytometry (Rvb =1.6 %); type: functional
[6] = system: SMMC-7721; test: Cell cycle arrest in human SMMC7721 cells assessed as sub-G1 phase accumulation at IC50 after 24 hrs by propidium iodide staining based flow cytometry (reference value: 0.8 %); type: functional
[7] = system: SMMC-7721; test: Cell cycle arrest in human SMMC7721 cells assessed as G1 phase accumulation at IC50 after 24 hrs by propidium iodide staining based flow cytometry (reference value: 57.6 %); type: functional
[8] = system: SMMC-7721; test: Cell cycle arrest in human SMMC7721 cells assessed as S phase accumulation at IC50 after 24 hrs by propidium iodide staining based flow cytometry (reference value: 12.7 %); type: functional
[9] = system: SMMC-7721; test: Cell cycle arrest in human SMMC7721 cells assessed as G2/M phase accumulation at IC50 after 24 hrs by propidium iodide staining based flow cytometry (reference value: 28.8 %); type: functional
[10] = system: SMMC-7721; test: Induction of apoptosis in human SMMC7721 cells assessed as live cells at half IC50 after 24 hrs by annexin V/PI-staining based flow cytometry (reference value: 97.3 %); type: functional
[11] = system: SMMC-7721; test: Induction of apoptosis in human SMMC7721 cells assessed as early apoptotic cells at half IC50 after 24 hrs by annexin V/PI-staining based flow cytometry (reference value: 0.6 %); type: functional
[12] = system: SMMC-7721; test: Induction of apoptosis in human SMMC7721 cells assessed as late apoptotic cells at half IC50 after 24 hrs by annexin V/PI-staining based flow cytometry (reference value: 0.5 %); type: functional
[13] = system: SMMC-7721; test: Induction of apoptosis in human SMMC7721 cells assessed as necrotic cells at half IC50 after 24 hrs by annexin V/PI-staining based flow cytometry (Rvb =1.6 %); type: functional
[14] = system: SMMC-7721; test: Cell cycle arrest in human SMMC7721 cells assessed as sub-G1 phase accumulation at half IC50 after 24 hrs by propidium iodide-staining based flow cytometry (reference value: 0.8 %); type: functional
[15] = system: SMMC-7721; test: Cell cycle arrest in human SMMC7721 cells assessed as G1 phase accumulation at half IC50 after 24 hrs by propidium iodide-staining based flow cytometry (reference value: 57.6 %); type: functional
[16] = system: SMMC-7721; test: Cell cycle arrest in human SMMC7721 cells assessed as S phase accumulation at half IC50 after 24 hrs by propidium iodide-staining based flow cytometry (reference value: 12.7 %); type: functional
[17] = system: SMMC-7721; test: Cell cycle arrest in human SMMC7721 cells assessed as G2/M phase accumulation at half IC50 after 24 hrs by propidium iodide-staining based flow cytometry (reference value: 28.8 %); type: functional
[18] = system: SMMC-7721; test: Induction of apoptosis in human SMMC7721 cells after 24 hrs by annexin V/PI-staining based flow cytometry; type: functional, cell-based
[19] = system: SMMC-7721; test: Induction of apoptosis in human SMMC7721 cells assessed as condensed nuclei after 24 hrs by Hoechst 33258 staining based fluorescent microscopic method; type: functional, cell-based
[20] = system: SMMC-7721; test: Induction of apoptosis in human SMMC7721 cells assessed as broken nuclei after 24 hrs by Hoechst 33258 staining based fluorescent microscopic method; type: functional, cell-based
[21] = system: SMMC-7721; test: Induction of apoptosis in human SMMC7721 cells assessed as increase in cleaved caspase 3 levels after 24 hrs by Western blot method; type: functional, cell-based
[22] = system: SMMC-7721; test: Induction of apoptosis in human SMMC7721 cells assessed as increase in cleaved caspase 8 levels after 24 hrs by Western blot method; type: functional, cell-based
[23] = system: SMMC-7721; test: Induction of apoptosis in human SMMC7721 cells assessed as increase in cleaved caspase 9 levels after 24 hrs by Western blot method; type: functional, cell-based
[24] = system: SMMC-7721; test: Induction of apoptosis in human SMMC7721 cells assessed as increase in Bax levels after 24 hrs by Western blot method; type: functional, cell-based
[25] = system: SMMC-7721; test: Induction of apoptosis in human SMMC7721 cells assessed as decrease in Bcl2 levels after 24 hrs by Western blot method; type: functional, cell-based
[26] = system: H22; test: Antitumor activity against mouse H22 cells implanted in Kunming mouse assessed as tumor weight at 15 mg/kg, po administered once daily for 7 days (reference value: 0.66 +/- 0.18 g); type: functional
[27] = system: H22; test: Antitumor activity against mouse H22 cells implanted in Kunming mouse assessed as tumor growth inhibition at 15 mg/kg, po administered once daily for 7 days relative to control; type: functional; conditions: 168 h, read-out: TGI

SMILES | Activity [1] | pIC50 [2] | Activity [3] | Activity [4] | Activity [5] | Activity [6] | Activity [7] | Activity [8] | Activity [9] | Activity [10] | Activity [11] | Activity [12] | Activity [13] | Activity [14] | Activity [15] | Activity [16] | Activity [17] | Activity [18] | Activity [19] | Activity [20] | other results
CC1=C[C@@]23CC[C@H]4[C@@](C)(CCC[C@@]4(C)C(=O)O)[C@@H]2CC[C@H]1C3 | 75.4% | 4.34 | 10.8% | 7.4% | 6.4% | 0.3% | 60.9% | 11% | 26.9% | 85.2% | 7.8% | 3.5% | 3.4% | 1.1% | 58.5% | 14.8% | 25.5% | Dose-dependent effect | Dose-dependent effect | Dose-dependent effect | –
C=C1C[C@@]23CC[C@H]4[C@@](C)(CCC[C@@]4(C)C(=O)O)[C@@H]2CC[C@H]1C3 | 79.3% | 4.17 | 12.9% | 5.2% | 2.6% | 1.2% | 73.3% | 7.7% | 18% | 80.4% | 10.7% | 5.1% | 3.8% | 1% | 61% | 11.2% | 26.9% | Dose-dependent effect | Dose-dependent effect | Dose-dependent effect | Activity [21]: Dose-dependent effect; Activity [22]: Dose-dependent effect; Activity [23]: Dose-dependent effect; Activity [24]: Dose-dependent effect; Activity [25]: Dose-dependent effect
O=c1[nH]cc(F)c(=O)[nH]1 [FLUOROURACIL] | – | – | – | – | – | – | – | – | – | – | – | – | – | – | – | – | – | – | – | – | Activity [26]: 0.36 g; inhibition in vivo at 15 mg/kg [27]: 44.7%
